From PMC10685318, “Trans-cyclosulfamidate mannose-configured cyclitol allows isoform-dependent inhibition of GH47 α-D-mannosidases through a bump–hole strategy” (Chemical Science, 2023)

Biological target: T1, MAN2B2 (Homo sapiens, UniProt Q9Y2E5)
T1 construct: expressed in transfected cells
T1 sequence (Q9Y2E5 24-1009): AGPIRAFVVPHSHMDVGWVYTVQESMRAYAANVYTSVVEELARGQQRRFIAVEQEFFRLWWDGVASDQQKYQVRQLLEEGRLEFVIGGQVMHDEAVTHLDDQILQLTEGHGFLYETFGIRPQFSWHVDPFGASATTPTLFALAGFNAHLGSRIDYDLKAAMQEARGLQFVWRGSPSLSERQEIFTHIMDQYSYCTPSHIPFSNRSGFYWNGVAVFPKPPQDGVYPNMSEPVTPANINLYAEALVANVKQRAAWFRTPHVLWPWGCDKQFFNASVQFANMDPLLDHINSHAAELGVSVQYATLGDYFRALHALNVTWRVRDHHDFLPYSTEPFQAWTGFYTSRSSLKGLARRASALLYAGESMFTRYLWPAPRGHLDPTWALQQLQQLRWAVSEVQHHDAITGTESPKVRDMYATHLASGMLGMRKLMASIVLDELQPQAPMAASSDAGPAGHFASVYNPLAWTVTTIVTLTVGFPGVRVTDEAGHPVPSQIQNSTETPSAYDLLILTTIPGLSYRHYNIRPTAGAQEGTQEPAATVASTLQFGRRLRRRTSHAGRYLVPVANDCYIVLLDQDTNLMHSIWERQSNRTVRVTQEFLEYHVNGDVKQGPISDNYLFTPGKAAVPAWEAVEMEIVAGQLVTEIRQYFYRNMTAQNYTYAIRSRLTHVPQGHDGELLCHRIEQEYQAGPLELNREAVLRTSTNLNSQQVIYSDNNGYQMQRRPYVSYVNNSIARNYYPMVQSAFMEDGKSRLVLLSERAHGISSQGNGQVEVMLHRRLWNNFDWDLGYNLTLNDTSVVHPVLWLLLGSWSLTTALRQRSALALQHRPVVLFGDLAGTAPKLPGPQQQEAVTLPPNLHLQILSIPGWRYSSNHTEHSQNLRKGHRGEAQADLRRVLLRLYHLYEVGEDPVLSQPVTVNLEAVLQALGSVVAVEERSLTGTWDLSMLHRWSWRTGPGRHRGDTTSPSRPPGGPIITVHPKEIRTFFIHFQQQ
Assay: 4-MU-α-man activity assay in overexpressed cell lysates
Format: biochemical

With `O=S1(=O)N[C@@H]2[C@@H](O)[C@@H](O)[C@H](O)[C@@H](CO)[C@H]2O1` [compound 6, 1,6-trans-manno-cyclosulfamidate] the “activity when the buffer was enriched with CoCl2” value (CoCl2) was “no activity” and the IC50 (Zn2+) was > 1000 µM.
